pIC50: −log10 of the molar value. Where a SMILES comes first, the peptide text is derived from it. Where no end group is shown, it is not given here. [ ]: non-standard residue; d: D form. The star is where a group is joined. Desaminotyrosyl = O=C(CCc1ccc(O)cc1)*; NMeY = CN[C@@H](Cc1ccc(O)cc1)C(=O)O; Aib = CC(C)(N)C(=O)O; Ava = NCCCCC(=O)O

The term pIC50 denotes the negative decadic logarithm of the IC50, by convention in mol/L. High values mean a small IC50, low ones a large IC50.

Sequence of Herpes Simplex Virus Ribonucleotide Reductase (HSV RR) (P89462 whole entry): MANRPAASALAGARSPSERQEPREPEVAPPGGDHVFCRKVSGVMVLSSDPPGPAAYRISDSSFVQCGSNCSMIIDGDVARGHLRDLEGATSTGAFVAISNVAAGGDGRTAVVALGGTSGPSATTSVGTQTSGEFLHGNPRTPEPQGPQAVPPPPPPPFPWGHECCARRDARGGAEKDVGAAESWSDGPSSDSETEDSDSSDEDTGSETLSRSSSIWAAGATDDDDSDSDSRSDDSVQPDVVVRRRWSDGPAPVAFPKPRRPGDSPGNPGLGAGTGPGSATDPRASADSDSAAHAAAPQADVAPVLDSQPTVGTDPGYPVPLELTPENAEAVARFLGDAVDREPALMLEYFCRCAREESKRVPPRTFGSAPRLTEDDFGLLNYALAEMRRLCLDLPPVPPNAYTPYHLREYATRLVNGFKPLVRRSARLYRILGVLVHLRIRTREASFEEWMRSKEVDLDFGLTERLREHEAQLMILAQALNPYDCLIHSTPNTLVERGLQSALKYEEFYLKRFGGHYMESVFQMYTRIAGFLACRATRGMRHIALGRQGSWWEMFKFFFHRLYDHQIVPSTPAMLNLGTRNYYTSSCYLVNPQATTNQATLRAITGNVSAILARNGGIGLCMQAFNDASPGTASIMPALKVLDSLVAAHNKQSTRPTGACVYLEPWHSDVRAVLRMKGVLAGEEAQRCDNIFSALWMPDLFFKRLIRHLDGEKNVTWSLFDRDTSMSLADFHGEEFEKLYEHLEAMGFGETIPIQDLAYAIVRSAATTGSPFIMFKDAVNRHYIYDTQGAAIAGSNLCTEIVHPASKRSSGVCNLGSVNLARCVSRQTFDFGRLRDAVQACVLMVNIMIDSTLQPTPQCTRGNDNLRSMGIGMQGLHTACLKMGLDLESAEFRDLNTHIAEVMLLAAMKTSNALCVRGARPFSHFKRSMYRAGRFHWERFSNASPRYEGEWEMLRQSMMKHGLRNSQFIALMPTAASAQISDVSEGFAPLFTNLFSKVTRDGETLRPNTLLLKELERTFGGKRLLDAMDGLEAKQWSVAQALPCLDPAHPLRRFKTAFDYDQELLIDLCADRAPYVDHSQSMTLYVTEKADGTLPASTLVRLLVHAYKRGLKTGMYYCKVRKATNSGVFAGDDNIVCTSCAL

In one test the target is T1, ribonucleotide reductase enzyme of herpes simplex virus (Human herpesvirus 1, UniProt P08543).
T1 sequence (P08543 whole entry, looked up): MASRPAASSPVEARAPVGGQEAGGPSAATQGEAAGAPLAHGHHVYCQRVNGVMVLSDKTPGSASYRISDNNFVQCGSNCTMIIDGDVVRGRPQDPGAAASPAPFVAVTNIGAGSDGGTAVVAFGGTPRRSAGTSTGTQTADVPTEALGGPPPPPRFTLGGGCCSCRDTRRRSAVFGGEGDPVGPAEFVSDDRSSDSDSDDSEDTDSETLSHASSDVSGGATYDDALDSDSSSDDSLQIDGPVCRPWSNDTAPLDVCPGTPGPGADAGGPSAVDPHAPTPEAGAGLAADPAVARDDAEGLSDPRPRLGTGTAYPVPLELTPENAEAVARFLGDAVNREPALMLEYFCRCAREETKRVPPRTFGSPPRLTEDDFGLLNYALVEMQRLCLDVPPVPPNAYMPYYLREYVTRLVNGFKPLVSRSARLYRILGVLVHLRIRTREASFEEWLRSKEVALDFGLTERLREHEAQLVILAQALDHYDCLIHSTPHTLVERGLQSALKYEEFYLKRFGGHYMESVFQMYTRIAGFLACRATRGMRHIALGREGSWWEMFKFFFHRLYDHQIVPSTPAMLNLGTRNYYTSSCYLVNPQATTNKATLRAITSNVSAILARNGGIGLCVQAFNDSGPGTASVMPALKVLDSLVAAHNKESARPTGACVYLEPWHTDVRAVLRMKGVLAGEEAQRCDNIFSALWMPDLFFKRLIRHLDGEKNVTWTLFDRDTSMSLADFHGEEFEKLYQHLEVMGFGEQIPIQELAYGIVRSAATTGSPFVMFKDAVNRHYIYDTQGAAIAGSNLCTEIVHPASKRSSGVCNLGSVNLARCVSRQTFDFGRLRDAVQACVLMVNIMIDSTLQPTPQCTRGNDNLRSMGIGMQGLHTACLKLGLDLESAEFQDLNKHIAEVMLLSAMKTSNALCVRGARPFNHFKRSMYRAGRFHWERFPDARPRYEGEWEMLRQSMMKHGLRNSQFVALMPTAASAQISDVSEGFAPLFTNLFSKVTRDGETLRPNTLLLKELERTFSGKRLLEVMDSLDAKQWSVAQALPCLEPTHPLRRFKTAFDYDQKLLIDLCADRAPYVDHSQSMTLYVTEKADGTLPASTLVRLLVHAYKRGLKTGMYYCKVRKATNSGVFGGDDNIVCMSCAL
Experiment: not given
The note with it: Dutia et al. and Cohen et al., Nature 321 (1986); cited from earlier work.
Consider “YGAVVNDL [8-desalanine homolog of the nonapeptide, Dutia et al]”, for which the “inhibition in vitro of enzyme activity” value is reported as “inhibited”.

For another test, the target named is ribonucleotide reductase enzyme of herpes simplex virus (Human herpesvirus 1, UniProt P08543).
Experiment: not given
The settings on record: Dutia et al. and Cohen et al., Nature 321 (1986); cited from earlier work.
For the compound Tyr Ala Gly Ala Val Val Asn Asp Leu, the “inhibition in vitro of enzyme activity” value was “inhibited”.

The next test concerns the target Herpes Simplex Virus Ribonucleotide Reductase (HSV RR) (Human herpesvirus 2, UniProt P89462). Nature of the test: biochemical.
Conditions: not given
On the procedure: HSV RR was purified from Baby Hamster Kidney cells that were cultured with HSV2 Strain 186. After infection, cells were harvested and lysed. Crude HSV RR was prepared as described by Huszar et al., J. Virol. 37: 580-588(1981) then subjected to further purification by hydroxyapatite column chromotography.
HSV RR activity was determined as the ability of the enzyme to catalyze the reduction of tritiated cytidine-diphosphate to deoxyribo-cytidine-diphosphate in 30 minutes at 37° C. in the presence of dithiothreitol and MgCl2. Activity of oligopeptide inhibitors was determined by adding them to the reaction mix at the beginning of the incubation. Enzyme was not preincubated with inhibitor.
Oligopeptides were synthesized by either the solid phase method of Merrified, op. cit., or by FMOC chemistry (John Morrow Stewart and Janis Dillaha Young, "Solid Phase Peptide Synthesis," 2nd ed, 1984, Pierce Chemical Co., Rockford, IL.) and purified to >98% homogeneity by reverse phase HPLC and recovered by lyophilization as trifluoroacetic acid salts. These were analyzed for amino acid composition and in some cases sequenced. Dry peptides were resuspended in 100 mM HEPES (pH 8.0) at about 2 mM, relyophilized, and stored in aliquots at -80° C. Immediately prior to use they were rehydrated with distilled H2 O and centrifuged to remove any undissolved peptide. The concentrations of these stock solutions were then determined by measuring A291 nm at basic pH (ε=2.55) for tyrosine-containing peptides and by quantitative amino acid composition for those peptides without tyrosine.
With FVVNDL [F V V N D L], the pIC50 was 4.19.

YAAVVNDL [YAA V V N D L] had a pIC50 of 3.95.

In turn, YAGYVVNDL [Y A G Y V V N D L] had a pIC50 of 5.10.

With `CC(C)C[C@H](NC(=O)[C@H](CC(=O)O)NC(=O)C(C)(C)NC(=O)[C@@H](NC(=O)[C@@H](NC(=O)[C@H](C)NC(=O)CNC(=O)[C@H](C)NC(=O)[C@@H](N)Cc1ccc(O)cc1)C(C)C)C(C)C)C(=O)O` [Y A G A V V J D L] (H-YAGAVV[Aib]DL-OH), the pIC50 is 3.70.

The compound `CC(C)C[C@H](NC(=O)[C@H](CC(=O)O)NC(=O)[C@H](CC(N)=O)NC(=O)[C@@H](NC(=O)[C@@H](NC(=O)CCc1ccc(O)cc1)C(C)C)C(C)C)C(=O)O` [desNH2Y V V N D L] gave a pIC50 of 4.62.

YVVNDL [Y V V N D L]: the pIC50 was 4.82.

YAPAVVNDL [Y A PA V V N D L] gave a pIC50 of 4.85.

KKLEEFLKVVNDL [K K L E E FLK V V N D L] had a pIC50 of 3.70.

Consider `CN[C@@H](Cc1ccc(O)cc1)C(=O)N[C@H](C(=O)N[C@H](C(=O)N[C@@H](CC(N)=O)C(=O)N[C@@H](CC(=O)O)C(=O)N[C@@H](CC(C)C)C(=O)O)C(C)C)C(C)C` [MeNY V V N D L] (H-[NMeY]VVNDL-OH), for which the pIC50 is 4.92.

With HVVNDL [H V V N D L], the pIC50 was 4.34.

As to `CC(C)C[C@H](NC(=O)[C@H](CC(=O)O)NC(=O)[C@H](CC(N)=O)NC(=O)[C@@H](NC(=O)[C@@H](NC(=O)[C@H](Cc1ccc(O)cc1)NC(=O)CCCCNC(=O)[C@@H](N)Cc1ccc(O)cc1)C(C)C)C(C)C)C(=O)O` [YBY V V N D L] (H-Y[Ava]YVVNDL-OH), the pIC50 is 4.70.

With AVVDDL [A V V D D L], the pIC50 was 3.71.

For the compound `COc1ccc(C[C@H](N)C(=O)N[C@H](C(=O)N[C@H](C(=O)N[C@@H](CC(N)=O)C(=O)N[C@@H](CC(=O)O)C(=O)N[C@@H](CC(C)C)C(=O)O)C(C)C)C(C)C)cc1` [MeOY V V N D L] (H-Y(Me)VVNDL-OH), the pIC50 was 4.70.

Regarding `CC(C)C[C@H](NC(=O)[C@H](CC(=O)O)NC(=O)[C@H](CC(N)=O)NC(=O)[C@@H](NC(=O)[C@@H](NC(=O)[C@H](C)NC(=O)CCc1ccc(O)cc1)C(C)C)C(C)C)C(=O)O` [desNH2YA V V N D L] (Desaminotyrosyl-AVVNDL-OH), the pIC50 was 3.80.

WVVNDL [W V V N D L]: the pIC50 is 4.77.

AAAVVNDL [A AA V V N D L] had a negative logarithm of the IC50 (pIC50) of 4.11.

Ac-YVVNDL [AcY V V N D L] had a pIC50 of 4.74.

FAGAVVNDL [FA G A V V N D L] showed a pIC50 of 4.25.

Source of the values: patent publication US4814432A, “Inhibitor of ribonucleotide reductase” (priority 1987, dated 1989).
